ChEMBL document CHEMBL1138408, “Molecular dynamics simulation of the P2Y14 receptor. Ligand docking and identification of a putative binding site of the distal hexose moiety” (Bioorg Med Chem Lett, 2007)
pEC50: −log10 of the molar value.

Biological target: T1, P2Y purinoceptor 14 (Homo sapiens, UniProt Q15391)
T1 sequence (Q15391 whole entry): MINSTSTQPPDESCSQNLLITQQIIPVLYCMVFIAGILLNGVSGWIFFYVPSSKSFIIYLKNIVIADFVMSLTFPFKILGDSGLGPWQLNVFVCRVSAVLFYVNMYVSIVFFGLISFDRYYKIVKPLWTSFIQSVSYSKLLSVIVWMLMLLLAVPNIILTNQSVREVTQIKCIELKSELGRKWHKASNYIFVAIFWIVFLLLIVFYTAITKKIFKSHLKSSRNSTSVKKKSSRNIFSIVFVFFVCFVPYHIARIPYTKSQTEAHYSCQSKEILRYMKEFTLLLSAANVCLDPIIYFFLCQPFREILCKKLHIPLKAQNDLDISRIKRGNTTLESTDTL
Assay: Agonist activity at human P2Y14 receptor expressed in COS7 cells assessed as stimulation of PLC
Format: functional, cell-based, COS-7

Compound | pEC50 | pEC50 (cos-7)
O=C(O)[C@@H]1O[C@@H](OP(=O)(O)OP(=O)(O)OC[C@H]2O[C@@H](n3ccc(=O)[nH]c3=O)[C@H](O)[C@@H]2O)[C@@H](O)[C@H](O)[C@H]1O | 6.43 | 
CC(=O)N[C@@H]1[C@H](OP(=O)(O)OP(=O)(O)OC[C@H]2O[C@@H](n3ccc(=O)[nH]c3=O)[C@H](O)[C@@H]2O)O[C@@H](CO)[C@H](O)[C@H]1O |  | 5.36
